Test results: patent US8759333B2, “Di-azetidinyl diamide as monoacylglycerol lipase inhibitors” (Janssen Pharmaceutica, NV, priority 2010, dated 2014)
Numbering of substitutions follows the chain as printed.

Assays:
[1] = molecular target: T1, mutant MGL (mut-MGLL 11-313 L179S L186S) (Homo sapiens, UniProt Q99685, L169S/L176S); experiment: MGL Enzyme Activity Assay, purified mutant MGL, 4MU-B substrate; type: biochemical; details: mutant MGL 5 nM, 4MU-B 10 μM, 37° C.; read-out: MGL mutant inh IC50
T1 construct: purified mutant MGL (mut-MGLL 11-313 L179S L186S)
T1 sequence (Q99685 1-303 L169S/L176S): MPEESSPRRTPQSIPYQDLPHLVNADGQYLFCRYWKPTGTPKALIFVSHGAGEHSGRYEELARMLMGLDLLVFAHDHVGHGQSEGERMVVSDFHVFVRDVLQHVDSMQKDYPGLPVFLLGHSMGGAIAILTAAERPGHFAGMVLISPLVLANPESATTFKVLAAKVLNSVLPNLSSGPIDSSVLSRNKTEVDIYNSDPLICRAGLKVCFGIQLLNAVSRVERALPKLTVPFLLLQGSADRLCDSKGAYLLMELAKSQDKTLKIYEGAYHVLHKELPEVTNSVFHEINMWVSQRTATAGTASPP
How it was run: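 Purified mutant MGL (5 nM final) with 10 μM 4MU-B in 20 mM PIPES pH 7.0, 150 mM NaCl, 0.001% Tween 20; compounds 17 to 0.0003 μM final. Fluorescence (ex 335/em 440 nm) followed 5 min at 37 °C; IC50 from fit of fractional activity versus inhibitor concentration.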

[2] = molecular target: T2, wild type MGL (wt-MGLL 6H-11-313) (Homo sapiens, UniProt Q99685); experiment: MGL Enzyme Activity Assay, purified wild type MGL, 4MU-B substrate; type: biochemical; details: wild type MGL 5 nM, 4MU-B 10 μM, 37° C.; read-out: MGL wild type inh IC50
T2 construct: purified wild type MGL (wt-MGLL 6H-11-313); 6H (hexahistidine) (N)
T2 sequence (Q99685 1-303): T1 sequence (Q99685 1-303 L169S/L176S) with S169L, S176L
Procedure: All rate-based assays were performed in black 384-well polypropylene PCR microplates (Abgene) in a total volume of 30 μL. […] Final compound concentrations ranged from 17 to 0.0003 μM.
The IC50 values for the following compounds were determined using Microsoft Office Excel from a fit of the equation to the concentration-response plot of the fractional activity as a function of inhibitor concentration.

[3] = molecular target: T3, MGL (Rattus norvegicus, UniProt Q8R431); experiment: 2-AG Accumulation Assay in rat brain homogenate; type: biochemical; details: percent of vehicle; for activity at 1 µM: compound @1 µM, read-out: Rat Brain 2AG % VehCntrl (%) @1 µM; for activity at 10 µM: compound @10 µM, read-out: Rat Brain 2AG % VehCntrl (%) @10 µM
T3 construct: one g rat brain was homogenized using a Polytron homogenizer; from tissue; host or cells: rat brain homogenate
T3 sequence (Q8R431 1-303): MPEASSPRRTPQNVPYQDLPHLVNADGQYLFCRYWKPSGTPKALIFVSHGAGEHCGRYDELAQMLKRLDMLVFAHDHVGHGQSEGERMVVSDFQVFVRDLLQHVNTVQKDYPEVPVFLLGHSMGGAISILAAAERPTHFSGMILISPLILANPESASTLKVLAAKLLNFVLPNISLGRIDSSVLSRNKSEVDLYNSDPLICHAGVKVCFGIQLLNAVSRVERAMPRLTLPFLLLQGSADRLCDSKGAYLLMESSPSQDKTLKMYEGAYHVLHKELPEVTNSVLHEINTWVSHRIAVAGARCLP

[4] = molecular target: T4, mutant MGL (Homo sapiens, UniProt Q99685, L169S/L176S); experiment: MGL ThermoFluor Assay - Mutant; type: binding; details: 0.07 mg/ml mutant MGL, 100 μM ANS, pH 7.0
T4 construct: purified mutant MGL (mut-MGLL 11-313 L179S L186S)
T4 sequence (Q99685 1-303 L169S/L176S): T1 sequence (Q99685 1-303 L169S/L176S)
Procedure: The ThermoFluor (TF) assay is a 384-well plate-based binding assay that measures thermal stability of proteins^1,2. The experiments were carried out using instruments available from Johnson & Johnson Pharmaceutical Research & Development, LLC. TF dye used in all experiments was 1,8-ANS (Invitrogen: A-47). Final TF assay conditions used for MGL studies were 0.07 mg/ml of mutant MGL, 100 μM ANS, 200 mM NaCl, 0.001% Tween-20 in 50 mM PIPES (pH=7.0).
Screening compound plates contained 100% DMSO compound solutions at a single concentration. […] Columns 12 and 24 were used as DMSO reference and contained no compound. […] Following compound dispension, protein and dye solutions were added to achieve the final assay volume of 3 μL.
Bar-coded assay plates were robotically loaded onto a thermostatically controlled PCR-type thermal block and then heated from 40 to 90° C. degrees at a ramp-rate of 1° C./min for all experiments. Fluorescence was measured by continuous illumination with UV light (Hamamatsu LC6), supplied via fiber optics and filtered through a band-pass filter (380-400 nm; >60D cutoff). Fluorescence emission of the entire 384-well plate was detected by measuring light intensity using a CCD camera (Sensys, Roper Scientific) filtered to detect 500±25 nm, resulting in simultaneous and independent readings of all 384 wells. A single image with 20-sec exposure time was collected at each temperature, and the sum of the pixel intensity in a given area of the assay plate was recorded vs temperature and fit to standard equations to yield the Tm^1. • 1.
The Kd values for certain compounds of Formula (I) were determined from a fit of the equation to the concentration-response plot of the fractional activity as a function of […]. For some experiments, quantitative NMR spectroscopy (qNMR) was used to measure concentration of the initial 100% DMSO compound solutions and, using the same fitting method, qKd values were determined.

| IC50 [1] [µM] | IC50 [2] [µM] | activity at 1 µM [3] [%] | Kd [4] [µM] | activity at 10 µM [3] [%] | Structure (SMILES) |
| --- | --- | --- | --- | --- | --- |
| 0.032 | < 0.005 | – | – | 123 | O=C(NC1CN(C2CN(C(=O)c3ccc(Cc4ccc(C(F)(F)F)cc4)cc3)C2)C1)c1nccs1 [Cpd 16, N-[1′-({4-[4-(Trifluoromethyl)benzyl]phenyl}carbonyl)-1,3′-biazetidin-3-yl]-1,3-thiazole-2-carboxamide] |
| 8.12 | 12.9 | – | > 31 | – | CN(C(=O)c1cscn1)C1CN(C2CN(C(=O)c3cc4ccc(C(F)(F)F)cc4s3)C2)C1 [Cpd 48, N-Methyl-N-(1′-{[6-(trifluoromethyl)-1-benzothiophen-2-yl]carbonyl}-1,3′-biazetidin-3-yl)-1,3-thiazole-4-carboxamide] |
| < 0.005 | 0.014 | 167 | 0.0319 | – | O=C(NC1CN(C2CN(C(=O)c3cc4ccc(C(F)(F)F)cc4s3)C2)C1)c1cscn1 [Cpd 49, N-(1′-{[6-(Trifluoromethyl)-1-benzothiophen-2-yl]carbonyl}-1,3′-biazetidin-3-yl)-1,3-thiazole-4-carboxamide] |
| – | 0.008 | 157 | 0.0666 | – | Cc1cc(-c2cccc(C(F)(F)F)c2)ccc1C(=O)N1CC(N2CC(NC(=O)c3nccs3)C2)C1 [Cpd 58, N-(1′-{[3-Methyl-3′-(trifluoromethyl)biphenyl-4-yl]carbonyl}-1,3′-biazetidin-3-yl)-1,3-thiazole-2-carboxamide] |
| – | 0.021 | 360 | 0.033 | – | Cc1c(C(=O)N2CC(N3CC(N4Cc5scnc5C4=O)C3)C2)sc2cc(C(F)(F)F)ccc12 [Cpd 103, 5-(1′-{[3-Methyl-6-(trifluoromethyl)-1-benzothiophen-2-yl]carbonyl}-1,3′-biazetidin-3-yl)-5,6-dihydro-4H-pyrrolo[3,4-d][1,3]thiazol-4-one] |
| – | 0.066 | – | 0.215 | – | Cc1cc(-c2cccc(C(F)(F)F)c2)ccc1C(=O)N1CC(N2CC(N3Cc4scnc4C3=O)C2)C1 [Cpd 104, 5-(1′-{[3-Methyl-3′-(trifluoromethyl)biphenyl-4-yl]carbonyl}-1,3′-biazetidin-3-yl)-5,6-dihydro-4H-pyrrolo[3,4-d][1,3]thiazol-4-one] |

The next lines start with the molecule.

| Structure (SMILES) | IC50 [1] [µM] | IC50 [2] [µM] | activity at 1 µM [3] [%] | Kd [4] [µM] | activity at 10 µM [3] [%] |
| --- | --- | --- | --- | --- | --- |
| O=C(NC1CN(C2CN(C(=O)c3ccc4nc(-c5ccccc5)sc4c3)C2)C1)c1nccs1 [Cpd 4, N-{1′-[(2-Phenyl-1,3-benzothiazol-6-yl)carbonyl]-1,3′-biazetidin-3-yl}-1,3-thiazole-2-carboxamide] | 0.007 | 0.013 | 148 | 0.143 | – |
| O=C(NC1CN(C2CN(C(=O)c3cc4ccc(C(F)(F)F)cc4s3)C2)C1)c1nccs1 [Cpd 7, N-(1′-{[6-(Trifluoromethyl)-1-benzothiophen-2-yl]carbonyl}-1,3′-biazetidin-3-yl)-1,3-thiazole-2-carboxamide] | 0.01 | < 0.005 | 243 | 0.01 | – |
| O=C(NC1CN(C2CN(C(=O)c3ccc(-c4ccc(C(F)(F)F)s4)cc3)C2)C1)c1nccs1 [Cpd 9, N-[1′-({4-[5-(Trifluoromethyl)thiophen-2-yl]phenyl}carbonyl)-1,3′-biazetidin-3-yl]-1,3-thiazole-2-carboxamide] | 0.013 | 0.506 | 193 | 0.014 | 160 |
| O=C(NC1CN(C2CN(C(=O)c3ccc(-c4ccc(C(F)(F)F)cc4)cc3)C2)C1)c1nccs1 [Cpd 12, N-(1′-{[4′-(Trifluoromethyl)biphenyl-4-yl]carbonyl}-1,3′-biazetidin-3-yl)-1,3-thiazole-2-carboxamide] | 0.018 | < 0.005 | 215 | 0.051 | 557 |
| O=C(NC1CN(C2CN(C(=O)c3ccc4c(ccn4-c4ccccc4)c3)C2)C1)c1nccs1 [Cpd 13, N-{1′-[(1-Phenyl-1H-indol-5-yl)carbonyl]-1,3′-biazetidin-3-yl}-1,3-thiazole-2-carboxamide] | 0.019 | < 0.005 | 441 | 0.05 | – |
| O=C(NC1CN(C2CN(C(=O)c3ccc(-c4ccc(C(F)(F)F)cc4)cc3)C2)C1)c1cscn1 [Cpd 14, N-(1′-{[4′-(Trifluoromethyl)biphenyl-4-yl]carbonyl}-1,3′-biazetidin-3-yl)-1,3-thiazole-4-carboxamide] | 0.027 | 0.009 | 187 | 0.086 | – |
| O=C(NC1CN(C2CN(C(=O)c3ccc(-c4cccc(C(F)(F)F)c4)cc3F)C2)C1)c1nccs1 [Cpd 64, N-(1′-{[3-Fluoro-3′-(trifluoromethyl)biphenyl-4-yl]carbonyl}-1,3′-biazetidin-3-yl)-1,3-thiazole-2-carboxamide] | – | < 0.005 | 253 | 0.02 | – |
| O=C(c1ccc2cc(-c3ccccc3)ccc2c1)N1CC(N2CC(N3Cc4ccccc4C3=O)C2)C1 [Cpd 69, 2-{1′-[(6-Phenylnaphthalen-2-yl)carbonyl]-1,3′-biazetidin-3-yl}-2,3-dihydro-1H-isoindol-1-one] | 0.008 | < 0.005 | – | – | 600 |
| O=C(c1ccc2c(-c3ccccc3)cccc2c1)N1CC(N2CC(N3Cc4ccccc4C3=O)C2)C1 [Cpd 97, 2-{1′-[(5-Phenylnaphthalen-2-yl)carbonyl]-1,3′-biazetidin-3-yl}-2,3-dihydro-1H-isoindol-1-one] | < 0.005 | < 0.005 | – | – | 518 |
| O=C(c1cc2ccc(-c3ccccc3)cc2s1)N1CC(N2CC(N3Cc4ccccc4C3=O)C2)C1 [Cpd 98, 2-{1′-[(6-Phenyl-1-benzothiophen-2-yl)carbonyl]-1,3′-biazetidin-3-yl}-2,3-dihydro-1H-isoindol-1-one] | < 0.005 | < 0.005 | – | – | 613 |
| Cc1cc(-c2ccc(C(F)(F)F)cc2)ccc1C(=O)N1CC(N2CC(N3Cc4scnc4C3=O)C2)C1 [Cpd 105, 5-(1′-{[3-Methyl-4′-(trifluoromethyl)biphenyl-4-yl]carbonyl}-1,3′-biazetidin-3-yl)-5,6-dihydro-4H-pyrrolo[3,4-d][1,3]thiazol-4-one] | – | 0.887 | – | 3.64 | – |
